# The source made the active and inactive calls. The calls are words filed in the database; no cut-off is given here.
# Columns and labels:
# [1] = target: T1, Neuropeptide Y receptor type 5 (Homo sapiens, UniProt Q15761); test: Binding affinity towards human neuropeptide Y receptor type 5 using [125I]-PYY as radioligand in baculovirus-infected Sf9 cells
# T1 sequence (Q15761 whole entry): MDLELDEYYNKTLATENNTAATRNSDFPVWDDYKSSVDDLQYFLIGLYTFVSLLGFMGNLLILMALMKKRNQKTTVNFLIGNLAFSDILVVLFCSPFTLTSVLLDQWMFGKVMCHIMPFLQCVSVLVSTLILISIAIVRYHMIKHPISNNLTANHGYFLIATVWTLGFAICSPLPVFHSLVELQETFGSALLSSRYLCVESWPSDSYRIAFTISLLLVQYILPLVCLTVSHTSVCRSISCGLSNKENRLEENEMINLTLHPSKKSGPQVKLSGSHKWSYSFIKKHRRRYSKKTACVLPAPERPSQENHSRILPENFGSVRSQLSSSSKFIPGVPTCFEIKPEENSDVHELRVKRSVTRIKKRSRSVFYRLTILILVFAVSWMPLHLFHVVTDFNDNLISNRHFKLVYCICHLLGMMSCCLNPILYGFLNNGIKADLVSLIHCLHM
# HMCB cell line = test: Compound was tested for [Ca2+] mobilization in NPY5 transfected human Bowes melanoma (HMCB) cell line.; format: functional, cell-based
# Rattus norvegicus [2] = test: Locomotor activity in male Sprague-Dawley rats at 40 mg/kg oral dose; format: functional, organism-based; set-up: dose 40 mg/kg
# Rattus norvegicus [3] = test: Overnight food intake was measured in rat model in which compound was dosed 2 hr prior to onset of the dark cycle;+/- =significant reduction in food intake; format: functional, organism-based
# Rattus norvegicus [4] = species on record: Rattus norvegicus; test: Food intake was measured for a 3-h period in 24-h food deprived rats;+/- =significant reduction in food intake/- =no significant reduction in food intake; format: functional, organism-based
# Rattus norvegicus [5] = species on record: Rattus norvegicus; test: Food intake was measured for a 3-h period in 24-h food deprived rats;+/- =significant reduction in food intake / - =no significant reduction in food intake; format: functional, organism-based
# Rattus norvegicus [6] = species on record: Rattus norvegicus; test: Ratio of the concentrations of compound in Brain to that of Plasma was determined at 8 hr; format: functional
# Rattus norvegicus [7] = test: Concentration of compound in brain was determined following a dose of 40 mg/kg administered orally at 2 hr; format: functional, organism-based; set-up: dose 40 mg/kg
# Rattus norvegicus [8] = test: Concentration of compound in brain was determined following a dose of 40 mg/kg administered orally at 4 hr; format: functional, organism-based; set-up: dose 40 mg/kg
# Rattus norvegicus [9] = test: Concentration of compound in plasma was determined following a dose of 40 mg/kg administered orally at 2 hr; format: functional, organism-based; set-up: dose 40 mg/kg
# Rattus norvegicus [10] = test: Concentration of compound in brain was determined following a dose of 40 mg/kg administered orally at 8 hr; format: functional, organism-based; set-up: dose 40 mg/kg
# Rattus norvegicus [11] = test: Concentration of compound in brain was determined following a dose of 40 mg/kg administered orally at 1 hr; format: functional, organism-based; set-up: dose 40 mg/kg
# Rattus norvegicus [12] = species on record: Rattus norvegicus; test: Ratio of the concentrations of compound in brain to that of Plasma was determined at 2 hr; format: functional
# Rattus norvegicus [13] = species on record: Rattus norvegicus; test: Ratio of the concentrations of compound in Brain to that of Plasma was determined at 1 hr; format: functional
# Rattus norvegicus [14] = test: Concentration of compound in plasma was determined following a dose of 40 mg/kg administered orally at 4 hr; format: functional, organism-based; set-up: dose 40 mg/kg
# Rattus norvegicus [15] = test: Concentration of compound in plasma was determined following a dose of 40 mg/kg administered orally at 1 hr; format: functional, organism-based; set-up: dose 40 mg/kg
# Rattus norvegicus [16] = test: Concentration of compound in plasma was determined following a dose of 40 mg/kg administered orally at 8 hr; format: functional, organism-based; set-up: dose 40 mg/kg
# Rattus norvegicus [17] = test: Overnight food intake was measured in rat model in which compound was dosed 2 hr prior to onset of the dark cycle; - =no significant reduction in food intake; format: functional, organism-based
# Rattus norvegicus [18] = test: Concentration of compound in Cerebrospinal fluid(CSF) was determined following a dose of 40 mg/kg administered orally at 8 hr; format: functional, organism-based; set-up: dose 40 mg/kg
# Rattus norvegicus [19] = species on record: Rattus norvegicus; test: Ratio of the concentrations of compound in Brain to that of Plasma was determined at 4 hr; format: functional
# Rattus norvegicus [20] = species on record: Rattus norvegicus; test: Food intake was measured for a 3-h period in 24-h food deprived rats;+/+ =significant reduction in food intake; format: functional, organism-based
# Rattus norvegicus [21] = test: Overnight food intake was measured in rat model in which compound was dosed 2 hr prior to onset of the dark cycle;- =no significant reduction in food intake; format: functional, organism-based
SMILES,Ki [1] [nM],EC50 (HMCB cell line) [nM],other results
c1ccc(-c2c[nH]c(-c3cccnc3)n2)cc1,525,,
Clc1ccc(-c2c[nH]c(-c3ccncc3)n2)cc1Cl,3.5,,
COc1ccc(-c2c[nH]c(-c3cccnc3)n2)cc1OC,148,723,
FC(F)(F)c1cccc(-c2c[nH]c(-c3cccnc3)n2)c1,1.6,3.2,Locomotor activity (Rattus norvegicus [2]): Active; Activity (Rattus norvegicus [3]): Active; Activity (Rattus norvegicus [4]): inactive
Clc1ccc(-c2c[nH]c(-c3cnc4ccccc4c3)n2)cc1Cl,> 10000,,
Clc1ccc(-c2c[nH]c(-c3cccnc3)n2)cc1Cl,4,,Activity (Rattus norvegicus [5]): inactive
Cc1[nH]c(-c2cccnc2)nc1-c1cccc(Cl)c1,19,40,
Clc1ccc(-c2c[nH]c(-c3ccccn3)n2)cc1Cl,30,,
c1ccc(-c2c[nH]c(-c3ccncc3)n2)cc1,1530,,
Clc1cccc(-c2c[nH]c(-c3cccnc3)n2)c1,8,,Ratio (Rattus norvegicus [6]): 5.3; Concentration (Rattus norvegicus [7]): 56 µM; Concentration (Rattus norvegicus [8]): 29 µM; Concentration (Rattus norvegicus [9]): 11 µM; Concentration (Rattus norvegicus [10]): 4 µM; Concentration (Rattus norvegicus [11]): 45 µM; Ratio (Rattus norvegicus [12]): 5.1; Ratio (Rattus norvegicus [13]): 4.4; Activity (Rattus norvegicus [4]): inactive; Concentration (Rattus norvegicus [14]): 6.2 µM; Concentration (Rattus norvegicus [15]): 10 µM; Concentration (Rattus norvegicus [16]): 1.3 µM; Activity (Rattus norvegicus [17]): inactive; Concentration (Rattus norvegicus [18]): 0.011 µM; Ratio (Rattus norvegicus [19]): 4.8
FC(F)(F)c1ccccc1-c1c[nH]c(-c2cccnc2)n1,27,39,
N#Cc1ccc(-c2c[nH]c(-c3cccnc3)n2)cc1,3000,,
Clc1ccc(-c2c[nH]c(-c3cc4ccccc4cn3)n2)cc1Cl,4770,,
COc1cccc(-c2c[nH]c(-c3cccnc3)n2)c1,56,45,
FC(F)(F)Oc1cccc(-c2c[nH]c(-c3cccnc3)n2)c1,4.9,13,
Clc1ccccc1-c1c[nH]c(-c2cccnc2)n1,21,15,
Clc1ccc(-c2c[nH]c(-c3cccnc3)n2)cc1,16,,Locomotor activity (Rattus norvegicus [2]): Active; Activity (Rattus norvegicus [20]): Active; Activity (Rattus norvegicus [21]): inactive
Clc1ccc(-c2c[nH]c(-c3cnccn3)n2)cc1Cl,40,,
c1ccc(-c2c[nH]c(-c3ccccn3)n2)cc1,1450,,
Cc1cccc(-c2c[nH]c(-c3cccnc3)n2)c1,14,24,
Fc1ccc(-c2c[nH]c(-c3cccnc3)n2)cc1F,34,,
Cc1[nH]c(-c2cccnc2)nc1-c1ccc(Cl)cc1,69,,
c1cncc(-c2nc(C3CCCCC3)c[nH]2)c1,231,36,
Cc1ccccc1-c1c[nH]c(-c2cccnc2)n1,40,52,
FC(F)(F)Oc1ccc(-c2c[nH]c(-c3cccnc3)n2)cc1,210,,
FC(F)(F)c1ccc(-c2c[nH]c(-c3cccnc3)n2)cc1,37,,
Clc1ccc(-c2c[nH]c(-c3nccc4ccccc34)n2)cc1Cl,116,17,
c1ccc(-c2c[nH]c(-c3ccccc3)n2)cc1,34,,

# From ChEMBL document CHEMBL1136300, “Structure-activity relationship studies on 2-heteroaryl-4-arylimidazoles NPY5 receptor antagonists” (Bioorg Med Chem Lett, 2003)
